Values joined by “and” are separate entries in the source; they are usually repeats but may differ in a detail not shown here. Identical values can stand only once.
Tested on: CEM cells
Experiment: Non-targeted LC-MS metabolite profiling: percent [13C6]glucose labeling and relative metabolite levels
Type: cell-based, human
Conditions: CEM cells, 12 h following release from G1 arrest, replicates #1-#6
Description: To further investigate the functions of dCK and ATR at the G1/S transition in CEM cells, a non-targeted liquid chromatography mass spectrometry (LC-MS) assay was used to determine the utilization of labeled [^13C6]glucose and [^13C9,^15N3]deoxycytidine, the main substrates for de novo and salvage nucleotide biosynthesis, respectively. Of the 166 metabolites identified in CEM cells treated with VE-822 and/or dCKi, 105 metabolites found in all four treatment groups contained glucose-derived ^13C atoms. […] These metabolites included intermediates such as rUTP, rCTP and rCDP in the de novo dCTP biosynthesis (Fig. 1d). […] However, several deoxyribonucleotides, including dCTP, were below the limit of detection of the non-targeted LC-MS approach, raising the concern that the sensitivity of this assay is not sufficient to measure the contribution of the salvage pathway or the ratio of de novo and salvage biosynthesis to these pools. To address this problem, a newly developed targeted MS assay was developed (Fig. 1e and Supplementary Fig. 3). In this assay, samples containing either extracted dNTPs or hydrolyzed DNA from labeled cells are separated by LC for detection by a triple quadrupole mass spectrometer using multiple reaction monitoring (LC-MS/MS-MRM). The first (Q1) and third (Q3) quadrupoles function as mass filters, while the second (Q2) quadrupole serves as a collision chamber (Fig. 1e). For instance, to profile the biosynthetic composition of deoxycytidine (dC) derived from hydrolyzed DNA or dCTP, an intact, protonated dC ion is selected in Q1, followed by fragmentation of the glycosidic bond, which releases protonated cytosine in Q2, that is filtered in Q3 and detected to generate an ion chromatogram. The peak areas for the ion chromatograms of salvage [^13C9,^15N3]dC (red trace), de novo [^13C5]dC (black trace, from [^13C6]glucose) and unlabeled dC (gray trace) (Fig. 1e) are used to determine the relative contributions of the de novo and salvage routes both to dCTP pools and to DNA-incorporated dCTP.
Cells were transferred into RPMI-1640 without glucose and supplemented with 10% dialyzed FBS (Gibco) containing the following labeled substrates: precursors for de novo [U-^13C6]glucose (Sigma-Aldrich, 389374) at 11 mM; precursors for purine salvage [U-^13C10,^15N5]dA (Cambridge Isotopes, CIL 3896), [^15N5]dA (Cambridge Isotopes, NLM-3895) and [^15N5]dG (Cambridge Isotopes, NLM-3899) at 5 µM or as indicated; and precursors for pyrimidine salvage: [U-^13C9,^15N3]dC (Silantes, 124603602) and [U-^13C10,^15N2]dT (Cambridge Isotopes, CNLM-3902) at 5 µM and [^15N2]orotate (Cambridge Isotopes, NLM-1048) at indicated concentrations. The cells were incubated for 12 h or as indicated before sample collection and processing. […]
Non-targeted LC-MS metabolic assays. 1 x 10^6 cells were washed with ice-cold 150 mM ammonium acetate twice before adding 1 mL of ice-cold 80% methanol with 10 nM norvaline as an internal standard. After vigorous vortexing, samples were centrifuged at maximum speed, the aqueous layer was transferred to a glass vial and the metabolites were dried under vacuum. Metabolites were resuspended in 50 μL 70% acetonitrile (ACN) and 5 μL of this solution used for the mass spectrometer-based analysis. The analysis was performed on a Q Exactive (Thermo Scientific) in polarity-switching mode with positive voltage 4.0 kV and negative voltage 4.0 kV. The mass spectrometer was coupled to an UltiMate 3000RSLC (Thermo Scientific) UHPLC system. Mobile phase A was 5 mM ammonium acetate (NH4AcO), pH 9.9, B was acetonitrile and the separation achieved on a Luna […] NH2 100 A column (150 × 2.0 mm, Phenomenex). The flow was 200 μL/min, and the gradient ran from 15% A to 95% A in 18 min, followed by an isocratic step for 9 min and re-equilibration for 7 min. Metabolites were detected and quantified as area under the curve based on retention time and accurate mass (≤ 3 p.p.m.) using the TraceFinder 3.1 (Thermo Scientific). Relative amounts of […]

COc1ccc(-c2nc([C@@H](C)Sc3nc(N)cc(N)n3)c(C)s2)cc1OCCNS(C)(=O)=O [dCKi]
Glucose labeling, Trp (C00078): 0.00% | Glucose labeling, Val (C00183): 0.00% | Relative level, PEP: 0.343 | Glucose labeling, Isocaproate (listed as D): 0.00% (5×) and -2.22e-14% | Glucose labeling, Lac (listed as D): 17.43% and 30.68% and 33.28% and 15.68% and 13.00% and 14.89% | Glucose labeling, Leu/Ile (listed as D): -2.22e-14% and 0.00% (4×) and 1.11e-14% | Glucose labeling, Mal (listed as D): 22.81% and 24.17% and 24.40% and 21.37% and 22.21% and 23.38% | Glucose labeling, Met (listed as D): 0.00216% and 0.00198% and 0.00236% and 0.00202% and 0.00192% and 0.00223% | Glucose labeling, N-Carbamoyl-L-aspartate (listed as D): 0.000983% and 0.12% (2×) and 0.00101% and 100.00% (2×) | Glucose labeling, NADP+ (listed as D): 100.00% (4×) and 0.00% (2×) | Glucose labeling, Ornithine (listed as D): 0.08% (2×) and 0.12% (3×) and 0.09% | Glucose labeling, Orotate (listed as D): 5.20% and 3.14% and 4.02% and 100.00% and 0.12% (2×) | Glucose labeling, Orotidine (listed as D): 49.18% and 49.16% and 49.11% and 54.80% and 53.82% and 55.45% | Glucose labeling, P-Choline (listed as D): 0.00228% and 0.00166% (2×) and 0.00229% and 0.00101% and 0.00171% | Glucose labeling, P-Ser (listed as D): 21.30% and 20.75% and 19.61% and 16.22% and 19.77% and 14.08% | Glucose labeling, Palmitate (listed as D): 0.0136% and 0.0179% and 0.09% and 0.03% and 0.0457% and 0.04% | Glucose labeling, Pantothenate (listed as D): 0.00% (5×) and 1.11e-14% | Glucose labeling, Pro (listed as D): 9.90% and 11.07% and 10.77% and 9.63% and 9.83% and 9.85% | Glucose labeling, Pro-OH (listed as D): 0.00135% and 0.00138% and 0.000869% and 0.0017% and 0.00248% and 0.00239% | Glucose labeling, R5P (listed as D): 87.51% and 100.00% (5×) | Glucose labeling, S7P (listed as D): 85.34% and 43.01% and 49.65% and 0.26% and 34.90% and 73.97% | Glucose labeling, SAM (listed as D): 73.81% and 73.09% and 74.83% and 72.35% and 72.18% and 72.31% | Glucose labeling, Sarc (C00213) (listed as D): 0.0243% (2×) and 0.0369% (3×) and 0.0225% | Glucose labeling, Ser (C00065) (listed as D): 13.87% and 15.01% and 14.51% and 12.51% and 11.83% and 11.82% | Glucose labeling, Shikimate (C00493) (listed as D): 0.00% (5×) and 1.11e-14% | Glucose labeling, Succ (C00042) (listed as D): 0.0276% and 1.49% and 1.88% and 0.0331% and 0.0737% (2×) | Glucose labeling, T (C00214) (listed as D): 0.15% and 0.44% and 0.32% and 0.24% and 0.03% and 0.02% | Glucose labeling, Thymine (C00178) (listed as D): 0.02% (2×) and 0.00812% and 0.0214% and 0.0432% and 0.0317% | Glucose labeling, Tyr (C00082) (listed as D): 0.00% (5×) and 1.11e-14% | Glucose labeling, Tyramine (C00483) (listed as D): 0.00% (5×) and 1.11e-14% | Glucose labeling, UDP (C00015) (listed as D): 74.72% and 81.32% and 85.65% and 45.74% and 66.67% and 72.12% | Glucose labeling, UDP-Glc (C00029) (listed as D): 95.49% and 96.74% and 98.34% and 91.90% and 85.90% and 94.22% | Glucose labeling, UDP-GlcNAc (C00043) (listed as D): 91.41% and 90.20% and 90.50% and 87.89% and 87.54% and 87.94% | Glucose labeling, UMP (C00105) (listed as D): 79.30% and 82.81% and 83.09% and 50.51% and 65.12% and 69.81% | Glucose labeling, UTP (C00075) (listed as D): 90.44% and 89.69% and 89.62% and 94.73% and 88.15% and 87.27% | Glucose labeling, Uracil (C00106) (listed as D): 0.0737% (3×) and 0.06% and 0.05% and 0.065% | Glucose labeling, Uric Acid (C00366) (listed as D): 0.00% (4×) and -2.22e-14% (2×) | Glucose labeling, Urocanate (C00785) (listed as D): 0.00% (5×) and 1.11e-14% | Glucose labeling, Vit-C (C00072) (listed as D): 0.00% (4×) and 1.11e-14% (2×) | Glucose labeling, Xanthine (C00385) (listed as D): 0.10% (2×) and 0.12% (3×) and 0.08% | Relative level, Isocaproate (listed as D): 1.0 (2×) and 0.8 and 0.9 (3×) | Relative level, Lac (listed as D): 1.1 and 0.9 and 1.0 and 0.446 and 0.548 and 0.7 | Relative level, Leu/Ile (listed as D): 1.0 and 1.3 and 1.5 and 0.8 (2×) and 0.9 | Relative level, Lys (listed as D): 1.2 (2×) and 1.5 and 0.8 (2×) and 0.9 | Relative level, Mal (listed as D): 0.8 and 1.0 and 1.4 and 0.339 and 0.53 and 0.65 | Relative level, Met (listed as D): 1.0 and 1.3 and 1.4 and 0.8 (2×) and 0.9 | Relative level, N-Carbamoyl-L-aspartate (listed as D): 0.7 and 1.5 and 2.9 and 0.5 | Relative level, NAD+ (listed as D): 0.8 and 1.1 (2×) and 1.3 and 0.553 and 0.7 | Relative level, NADP+ (listed as D): 1.6 and 0.273 | Relative level, Nicotinamide (listed as D): 1.3 and 1.4 and 1.2 and 0.7 and 0.743 and 0.527 | Relative level, Ornithine (listed as D): 1.6 and 0.9 and 1.1 and 0.8 (2×) and 1.0 | Relative level, Orotate (listed as D): 0.468 and 0.9 and 0.8 and 0.0556 and 0.0189 | Relative level, Orotidine (listed as D): 1.2 and 1.6 and 1.5 and 0.8 (2×) and 0.9 | Relative level, P-Choline (listed as D): 1.0 and 1.1 and 1.4 and 0.5 (2×) and 0.65 | Relative level, P-Creatine (listed as D): 0.8 and 0.6 and 1.6 and 2.2 and 1.2 and 1.5 | Relative level, P-EtA (listed as D): 0.9 and 0.452 and 1.3 and 0.5 and 0.6 and 0.8 | Relative level, P-Ser (listed as D): 1.2 and 1.3 (2×) and 0.3 and 0.317 and 0.334 | Relative level, Palmitate (listed as D): 1.1 (4×) and 0.85 and 0.9 | Relative level, Pantothenate (listed as D): 1.2 and 1.6 and 1.7 and 0.9 (3×) | Relative level, Phe (listed as D): 1.1 and 1.4 and 1.6 and 0.9 (2×) and 1.0 | Relative level, Pipecolate (listed as D): 1.2 and 1.1 and 1.4 and 0.8 and 0.7 and 0.9 | Relative level, Pro (listed as D): 1.0 and 1.3 (2×) and 0.8 (2×) and 0.753 | Relative level, Pro-OH (listed as D): 1.1 and 1.2 and 1.3 and 0.8 (2×) and 0.75 | Relative level, Pyr (listed as D): 0.171 and 2.0 and 11.3 and 1.7 and 3.4 and 3.3 | Relative level, R5P (listed as D): 0.9 and 0.4 and 2.2 and 0.2

Reference: publication PMC5556071, “ATR inhibition facilitates targeting of leukemia dependence on convergent nucleotide biosynthetic pathways” (Nature Communications, 2017)
